Results taken from patent US6143780A, “N-arylmethylthioanilide compounds useful for the inhibition of the replication of HIV” (Uniroyal Chemical Company, Inc., priority 1999, dated 2000).
Converted amounts (≈) assume the structure as drawn. “And” between values parts separate entries of the source, which are not always exact repeats. Identical values can stand only once. Like-named read-outs stand apart in the source and are kept apart here.

Key:
[1] = tested on: HIV-1 (IIIB); assay: inhibition of HIV-1(IIIB) (WT) induced syncytium formation in CEM cells; assay type: cell-based
Source text: (§1) CEM cells were obtained from the American Tissue Cell Culture Collection (Rockville, Md.) . HIV-1 (IIIB) was originally obtained from the culture supernatant of persistently HIV-1-infected H9 cells and was provided by R. C. Gallo and M. Popovic (National Cancer Institute, National Institutes of Health, Bethesda, Md.).
(§2) CEM cells were suspended at ≈300,000 cells per ml of culture medium and infected with approximately 100 CCID50 (CCID50 being the 50% cell culture infective dose) of HIV-1(IIIB) (designated as "WT" in Table 3) or one of the HIV-1 RT mutant strains described above. Then 100 μl of the infected cell suspensions was added to 200 μl microtiter plate wells containing 100 μl of appropriate serial (5-fold) dilutions of the test compounds. The inhibitiory effect of the test compounds on HIV-1 induced syncytium formation in CEM cells was examined microscopically on day 4 post infection. The 50% effective concentration (EC50) was defined as the test compound concentration that inhibits syncytium formation in the HIV-1-infected cell cultures by 50%.

[2] = tested on: HIV-1/100-Ile; assay: inhibition of syncytium formation in CEM cells, HIV-1 RT mutant 100-Ile; assay type: cell-based; conditions: Human immunodeficiency virus 1, CCRF-CEM, 96 h, read-out: EC50 100-Ile
Source text: as §1
(§3) The selection and characterization of the HIV-1 RT mutant strains were done as follows: HIV-1/100-Ile ("100-Ile") was selected for resistance against TIBO R82150 as described in Balzarini et al, Virology 192: 246-253 (1993); HIV-1/103-Asn ("103-Asn") was selected for resistance against TIBO R82913 as described in Balzarini et al, Virology 192: 246-253 (1993); HIV-1/106-Ala ("106-Ala") was selected for resistance against nevirapine as described in Balzarini et al, J. Virol. 67: 5353-5359 (1993); HIV-1/Lys-138 ("Lys-138") was selected for resistance against TSAO-m^3T as described in Balzarini et al, Virology 192: 246-253 (1993) and Balzarini et al, Proc. Nat. Acad. Sci. USA 90: 6952-6956 (1993); HIV-1/181-Cys ("181-Cys") was selected for resistance against pyridinone L-697,661 as described in Balzarini et al, Virology 192: 246-253 (1993); and HIV-1/188-His ("188-His") was selected for resistance against HEPT as described in Balzarini et al, Mol. Pharmocol. 44: 694-701 (1993). 188-His was then further converted to HIV-1/188-Leu ("188-Leu") upon further passage in cell culture in the absence of the HEPT. HIV-1/101-Glu ("101-Glu") and HIV-1/190-Glu ("190-Glu") were selected for resistance against the thiocarboxanilide derivative designated as UC38 as described in Balzarini et al, Antiviral Research 27: 219-236 (1995). HIV-1/184-Ile ("184-Ile") was selected for resistance against the combination of 3TC and TSAO-m^3 T as described in Balzarini et al, Molecular Pharm. 49: 882-890 (1996). HIV-1/184-Val ("184-Val") was selected for resistance against 3TC as described in Balzarini et al, Molecular Pharm. 49: 882-890 (1996).
as §2

[3] = tested on: HIV-1/101-Glu; assay: inhibition of syncytium formation in CEM cells, HIV-1 RT mutant 101-Glu; assay type: cell-based; conditions: Human immunodeficiency virus 1, CCRF-CEM, 96 h, read-out: EC50 101-Glu
Source text: as §1, §3, §2

[4] = tested on: 103-Ala; assay: inhibition of syncytium formation in CEM cells, HIV-1 RT mutant 103-Ala; assay type: cell-based; conditions: Human immunodeficiency virus 1, CCRF-CEM, 96 h, read-out: EC50 103-Ala
[5] = tested on: HIV-1/106-Ala; assay: inhibition of syncytium formation in CEM cells, HIV-1 RT mutant 106-Ala; assay type: cell-based; conditions: Human immunodeficiency virus 1, CCRF-CEM, 96 h, read-out: EC50 106-Ala
Source text: as §1, §3, §2

[6] = tested on: 138-Lys; assay: inhibition of syncytium formation in CEM cells, HIV-1 RT mutant 138-Lys; assay type: cell-based; conditions: Human immunodeficiency virus 1, CCRF-CEM, 96 h, read-out: EC50 138-Lys
Source text: as §1, §3, §2

[7] = tested on: HIV-1/181-Cys; assay: inhibition of syncytium formation in CEM cells, HIV-1 RT mutant 181-Cys; assay type: cell-based; conditions: Human immunodeficiency virus 1, CCRF-CEM, 96 h, read-out: EC50 181-Cys
Source text: as §1, §3, §2

[8] = tested on: HIV-1/184-Ile; assay: inhibition of syncytium formation in CEM cells, HIV-1 RT mutant 184-Ile; assay type: cell-based; conditions: Human immunodeficiency virus 1, CCRF-CEM, 96 h, read-out: EC50 184-IIe
Source text: as §1, §3, §2

[9] = tested on: HIV-1/184-Val; assay: inhibition of syncytium formation in CEM cells, HIV-1 RT mutant 184-Val; assay type: cell-based; conditions: Human immunodeficiency virus 1, CCRF-CEM, 96 h, read-out: EC50 184-Val
Source text: as §1, §3, §2

[10] = tested on: HIV-1/188-His; assay: inhibition of syncytium formation in CEM cells, HIV-1 RT mutant 188-His; assay type: cell-based; conditions: Human immunodeficiency virus 1, CCRF-CEM, 96 h, read-out: EC50 188-His
Source text: as §1, §3, §2

[11] = tested on: HIV-1/188-Leu; assay: inhibition of syncytium formation in CEM cells, HIV-1 RT mutant 188-Leu; assay type: cell-based; conditions: Human immunodeficiency virus 1, CCRF-CEM, 96 h, read-out: EC50 188-Leu
Source text: as §1, §3, §2

[12] = tested on: HIV-1/190-Glu; assay: inhibition of syncytium formation in CEM cells, HIV-1 RT mutant 190-Glu; assay type: cell-based; conditions: Human immunodeficiency virus 1, CCRF-CEM, 96 h, read-out: EC50 190-Glu
Source text: as §1, §3, §2

[13] = tested on: HIV-1 strains containing the 100 Leu→Ile mutation in their RT; conditions: cited from earlier work
[14] = tested on: 181 Tyr→Cys mutation in the RT of HIV-1 strains; conditions: cited from earlier work
[15] = Human immunodeficiency virus 1, IIIB, CCRF-CEM, 96 h, Table 3, HIV-1(IIIB), day 4 post infection, read-out: EC50 WT
[16] = Table 2, day 4 post infection, replicate values, read-out: EC50, Activity Against HIV-1 (IIIB)

| SMILES | EC50 [1, 15] | EC50 [1, 16] | EC50 [2] | EC50 [3] | EC50 [4] | EC50 [5] | EC50 [6] | EC50 [7] | EC50 [8] | EC50 [9] | EC50 [10] | EC50 [11] | EC50 [12] | resistance of 100 Leu→Ile mutant strains [13] | resistance of 181 Tyr→Cys mutant strains [14] |
| --- | --- | --- | --- | --- | --- | --- | --- | --- | --- | --- | --- | --- | --- | --- | --- |
| Cc1occc1C(=S)Nc1ccc(Cl)c(COc2ccc(F)cc2)c1 [Compound 11] | 0.065 µg/mL | 85.1 nM and 161 nM and 276 nM | 0.95 µg/mL | ≥ 2 µg/mL | > 2 µg/mL | 1.1 µg/mL | 0.7 µg/mL | 0.14 µg/mL | 0.16 µg/mL | 0.045 µg/mL | > 2 µg/mL | ≥ 2 µg/mL | ≥ 2 µg/mL | – | – |
| Cc1occc1C(=S)Nc1ccc(Cl)c(COc2c(F)ccc(F)c2F)c1 [Compound 45] | 0.0017 µg/mL | – | 0.11 µg/mL | 0.04 µg/mL | 0.4 µg/mL (≈ 0.971 µM) | 0.025 µg/mL | 0.012 µg/mL | 0.065 µg/mL | 0.005 µg/mL | 0.0027 µg/mL | 0.85 µg/mL | 1.5 µg/mL | > 2 µg/mL | – | – |
| CCCc1ccccc1OCc1cc(NC(=S)c2ccoc2C)ccc1Cl [Compound 43] | 0.03 µg/mL | 42.5 nM and 118 nM | 1.14 µg/mL | 1.35 µg/mL | > 2 µg/mL | > 2 µg/mL | 0.31 µg/mL | > 0.4 µg/mL | 0.13 µg/mL | 0.04 µg/mL | 0.65 µg/mL | > 2 µg/mL | > 2 µg/mL | – | – |
| Cc1occc1C(=S)Nc1ccc(Cl)c(COc2ccccc2CO)c1 [Compound 25] | 0.55 µg/mL | 3140 nM and 1090 nM and 1490 nM and 1150 nM and 1000 nM | > 2 µg/mL | > 2 µg/mL | > 2 µg/mL | > 2 µg/mL | > 2 µg/mL | > 2 µg/mL | 1 µg/mL | 0.25 µg/mL | > 2 µg/mL | > 2 µg/mL | > 2 µg/mL | – | – |
| CC(=O)OCc1ccccc1OCc1cc(NC(=S)c2ccoc2C)ccc1Cl [Compound 15] | 0.49 µg/mL | – | > 2 µg/mL | > 2 µg/mL | > 2 µg/mL | > 2 µg/mL | > 2 µg/mL | > 2 µg/mL | 1.2 µg/mL | 0.5 µg/mL | > 2 µg/mL | > 2 µg/mL | ≥ 2 µg/mL | – | – |
| CC(C)=CCN1Cc2cc(Cl)cc3[nH]c(=S)n(c23)CC1C (single isomer, unassigned) [TIBO R82913] | – | – | – | – | – | – | – | – | – | – | – | – | – | resistant | – |
| Cc1ccc(Cl)c(OCc2cc(NC(=S)c3ccoc3C)ccc2Cl)c1 [Compound 37] | 0.025 µg/mL | 19.2 nM and 76.6 nM | 2.33 µg/mL | 1.4 µg/mL | > 2 µg/mL | > 2 µg/mL | 0.33 µg/mL | > 2 µg/mL | 0.14 µg/mL | 0.09 µg/mL | 0.33 µg/mL | 0.62 µg/mL | > 2 µg/mL | – | – |
| CC(C)=CCN1Cc2cccc3[nH]c(=S)n(c23)CC1C (single isomer, unassigned) [Compound R82150] | – | – | – | – | – | – | – | – | – | – | – | – | – | resistant | – |
| Cc1ccnc2c1NC(=O)c1cccnc1N2C1CC1 [nevirapine] | – | – | – | – | – | – | – | – | – | – | – | – | – | – | resistant |
